Measurements reported in ChEMBL document CHEMBL1201862, “PubChem BioAssay data set” (2004).
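Tested at 5 concentrations; 48 h exposure; 96-well plates; endpoints linearly interpolated, else capped at highest concentration. GI50 is the concentration that inhibits growth by half.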 Activity calls are given as the source filed them. Rule as the data show it: active = GI50 up to about 1.1 µM and inactive = higher.

Key:
Test in all cases: growth of human tumour cells (NCI), 48 h
[1] = tested on: U-251
[2] = tested on: CCRF-CEM
[3] = tested on: HCC 2998
[4] = tested on: NCI/ADR-RES
[5] = tested on: MDA-MB-435
[6] = tested on: SR
[7] = tested on: RPMI-8226
[8] = tested on: EKVX
[9] = tested on: HCT-116
[10] = tested on: SF-295
[11] = tested on: PC-3
[12] = tested on: HCT-15
[13] = tested on: DU-145
[14] = tested on: SW-620
[15] = tested on: SN12C
[16] = tested on: SK-OV-3
[17] = tested on: A498
[18] = tested on: COLO 205
[19] = tested on: UACC-257
[20] = tested on: IGROV-1
[21] = tested on: MOLT-4
[22] = tested on: SK-MEL-5
[23] = tested on: 786-0
[24] = tested on: BT-549
[25] = tested on: HOP-18
[26] = tested on: UO-31
[27] = tested on: SNB-75
[28] = tested on: M14
[29] = tested on: NCI-H226
[30] = tested on: HOP-62
[31] = tested on: SNB-19
[32] = tested on: SF-539
[33] = tested on: NCI-H522
[34] = tested on: HL-60
[35] = tested on: SF-268
[36] = tested on: OVCAR-3
[37] = tested on: UACC-62
[38] = tested on: HT-29
[39] = tested on: MCF7
[40] = tested on: OVCAR-5
[41] = tested on: SK-MEL-28
[42] = tested on: LXFL 529
[43] = tested on: K562
[44] = tested on: A549
[45] = tested on: HOP-92
[46] = tested on: NCI-H460
[47] = tested on: ACHN
[48] = tested on: KM12
[49] = tested on: MDA-N
[50] = tested on: TK-10
[51] = tested on: OVCAR-8
[52] = tested on: M19-MEL
[53] = tested on: Malme-3M
[54] = tested on: NCI-H23
[55] = tested on: Hs-578T
[56] = tested on: SK-MEL-2
[57] = tested on: OVCAR-4
[58] = tested on: MDA-MB-231
[59] = tested on: KM-20L2
[60] = tested on: CAKI-1
[61] = tested on: DMS-273
[62] = tested on: DMS-114
[63] = tested on: DLD-1
[64] = tested on: XF498
[65] = tested on: LOX IMVI
[66] = tested on: RXF 393
[67] = tested on: SNB-78

Measured: GI50

CCOC(=O)C1=C(N)N(c2ccccc2)/C(=C2\SC(=S)N(c3ccc(C)cc3)C2=O)S1
> 100 µM: [12]
inactive: [1] 29.6 µM | [2] 54.2 µM | [3] 50.1 µM | [4] 50.5 µM | [5] > 100 µM | [6] > 100 µM | [7] 93.1 µM | [8] > 100 µM | [9] 63.2 µM | [10] 21 µM | [11] 51.4 µM | [13] 89.9 µM | [14] > 100 µM | [15] 35.8 µM | [16] 26.9 µM | [17] 31.4 µM | [18] > 100 µM | [19] 42.3 µM | [20] > 100 µM | [21] 60.8 µM | [22] 54.8 µM | [23] 29.3 µM | [24] 90.2 µM | [25] 45.2 µM | [26] 68.2 µM | [27] 3.99 µM | [28] > 100 µM | [29] 33.6 µM | [30] 22.2 µM | [31] 29.7 µM | [32] 14.8 µM | [33] 34.3 µM | [34] 71.6 µM | [35] 29.5 µM | [36] 27.9 µM | [37] 88.7 µM | [38] 47.3 µM | [39] 87.5 µM | [40] 61.9 µM | [41] 23.4 µM | [42] 59.2 µM | [43] 36.8 µM | [44] 52.1 µM | [45] 30.5 µM | [46] 75.2 µM | [47] 76 µM | [48] > 100 µM | [49] > 100 µM | [50] 48.4 µM | [51] 33.3 µM | [52] > 100 µM | [53] 51.1 µM | [54] 47.4 µM | [55] 25 µM | [56] 73.3 µM | [57] 18 µM | [58] 22.6 µM

CC(C)NC(C)C(C)c1ccccc1 (centres undefined)
inactive: [1] > 100 µM | [2] > 100 µM | [3] > 100 µM | [59] > 100 µM | [7] > 100 µM | [8] > 100 µM | [9] > 100 µM | [10] > 100 µM | [14] > 100 µM | [15] > 100 µM | [16] > 100 µM | [17] > 100 µM | [18] > 100 µM | [19] > 100 µM | [20] > 100 µM | [21] > 100 µM | [22] > 100 µM | [23] > 100 µM | [26] > 100 µM | [27] > 100 µM | [28] > 100 µM | [29] > 100 µM | [30] > 100 µM | [31] > 100 µM | [32] > 100 µM | [60] > 100 µM | [33] > 100 µM | [35] > 100 µM | [36] > 100 µM | [61] > 100 µM | [62] > 100 µM | [37] > 100 µM | [38] > 100 µM | [41] > 100 µM | [42] > 100 µM | [43] > 100 µM | [44] > 100 µM | [46] > 100 µM | [63] > 100 µM | [64] > 100 µM | [65] > 100 µM | [47] > 100 µM | [48] > 100 µM | [50] > 100 µM | [51] > 100 µM | [66] > 100 µM | [52] > 100 µM | [53] > 100 µM | [54] > 100 µM | [56] > 100 µM | [57] > 100 µM

O/N=C(\c1ccccc1)N1CCCCC1
inactive: [1] > 100 µM | [3] > 100 µM | [6] > 100 µM | [59] > 100 µM | [9] > 100 µM | [10] > 100 µM | [67] > 100 µM | [14] > 100 µM | [15] > 100 µM | [18] > 100 µM | [19] > 100 µM | [23] > 100 µM | [26] 66.5 µM | [27] 82.8 µM | [28] > 100 µM | [30] 92.3 µM | [31] > 100 µM | [32] > 100 µM | [60] > 100 µM | [33] > 100 µM | [34] > 100 µM | [35] > 100 µM | [36] > 100 µM | [61] > 100 µM | [62] > 100 µM | [38] > 100 µM | [40] > 100 µM | [42] > 100 µM | [44] > 100 µM | [45] > 100 µM | [46] > 100 µM | [63] > 100 µM | [65] > 100 µM | [48] > 100 µM | [51] > 100 µM | [53] 4.19 µM | [54] > 100 µM | [56] > 100 µM | [57] > 100 µM
active: [25] < 0.01 µM
